In US8937064B2, “Pyrazolo[1,5-a]pyrimidines useful as JAK2 inhibitors” (Vertex Pharmaceuticals Incorporated, priority 2007, dated 2015):

Tests used:
JAK-2 enzyme = JAK-2 enzyme (Homo sapiens, UniProt O60674); assay: JAK2 Inhibition Assay
Method: Reactions were carried out in a kinase buffer containing 100 mM HEPES (pH 7.4), 1 mM DTT, 10 mM MgCl2, 25 mM NaCl, and 0.01% BSA. Substrate concentrations in the assay were 5 μM ATP (200 uCi/μmole ATP) and 1 μM poly(Glu)4Tyr. Reactions were carried out at 25° C. and 1 nM JAK3.
To each well of a 96 well polycarbonate plate was added 1.5 μl of a candidate JAK3 inhibitor along with 50 μl of kinase buffer containing 2 μM poly(Glu)4Tyr and 10 μM ATP. This was then mixed and 50 μl of kinase buffer containing 2 nM JAK3 enzyme was added to start the reaction. After 20 minutes at room temperature (25° C.), the reaction was stopped with 50 μl of 20% trichloroacetic acid (TCA) that also contained 0.4 mM ATP. The entire contents of each well were then transferred to a 96 well glass fiber filter plate using a TomTek Cell Harvester. After washing, 60 μl of scintillation fluid was added and ^33P incorporation detected on a Perkin Elmer TopCount.

JAK3 = target: T1, JAK3 (Homo sapiens, UniProt P52333); assay: JAK3 Inhibition Assay; type: biochemical; conditions: 1 nM JAK3, 1 μM poly(Glu)4Tyr, 5 μM ATP, 25° C., 33P incorporation
T1 sequence (P52333 1-1124): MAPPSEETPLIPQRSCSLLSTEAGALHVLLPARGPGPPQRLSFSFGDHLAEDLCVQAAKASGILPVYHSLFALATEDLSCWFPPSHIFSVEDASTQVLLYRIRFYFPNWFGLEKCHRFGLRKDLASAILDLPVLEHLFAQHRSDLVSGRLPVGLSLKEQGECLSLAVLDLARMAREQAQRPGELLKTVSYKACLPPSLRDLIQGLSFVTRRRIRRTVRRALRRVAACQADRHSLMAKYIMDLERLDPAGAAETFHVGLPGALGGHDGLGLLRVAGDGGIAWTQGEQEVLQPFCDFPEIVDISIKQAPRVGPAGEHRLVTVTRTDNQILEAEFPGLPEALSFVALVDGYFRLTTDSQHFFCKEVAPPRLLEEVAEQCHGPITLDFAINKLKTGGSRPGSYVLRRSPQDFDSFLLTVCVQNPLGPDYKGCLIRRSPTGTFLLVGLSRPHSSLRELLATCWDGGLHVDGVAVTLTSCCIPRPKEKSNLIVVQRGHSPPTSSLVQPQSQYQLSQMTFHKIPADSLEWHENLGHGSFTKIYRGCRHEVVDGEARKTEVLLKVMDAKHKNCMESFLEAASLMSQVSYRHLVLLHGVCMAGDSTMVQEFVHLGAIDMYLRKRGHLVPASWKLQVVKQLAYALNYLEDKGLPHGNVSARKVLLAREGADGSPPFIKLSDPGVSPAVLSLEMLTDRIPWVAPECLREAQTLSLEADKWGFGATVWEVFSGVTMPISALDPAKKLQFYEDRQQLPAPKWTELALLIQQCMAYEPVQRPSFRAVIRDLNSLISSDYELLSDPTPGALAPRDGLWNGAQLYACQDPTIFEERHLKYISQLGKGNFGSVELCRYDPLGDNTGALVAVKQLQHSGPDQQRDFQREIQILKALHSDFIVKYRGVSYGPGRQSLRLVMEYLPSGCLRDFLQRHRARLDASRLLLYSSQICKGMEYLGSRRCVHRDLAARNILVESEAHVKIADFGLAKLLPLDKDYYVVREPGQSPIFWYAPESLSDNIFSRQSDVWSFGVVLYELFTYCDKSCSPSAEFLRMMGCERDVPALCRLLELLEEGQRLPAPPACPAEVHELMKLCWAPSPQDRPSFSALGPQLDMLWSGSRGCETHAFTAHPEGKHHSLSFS

JAK-2 enzyme, sequence (O60674 whole entry): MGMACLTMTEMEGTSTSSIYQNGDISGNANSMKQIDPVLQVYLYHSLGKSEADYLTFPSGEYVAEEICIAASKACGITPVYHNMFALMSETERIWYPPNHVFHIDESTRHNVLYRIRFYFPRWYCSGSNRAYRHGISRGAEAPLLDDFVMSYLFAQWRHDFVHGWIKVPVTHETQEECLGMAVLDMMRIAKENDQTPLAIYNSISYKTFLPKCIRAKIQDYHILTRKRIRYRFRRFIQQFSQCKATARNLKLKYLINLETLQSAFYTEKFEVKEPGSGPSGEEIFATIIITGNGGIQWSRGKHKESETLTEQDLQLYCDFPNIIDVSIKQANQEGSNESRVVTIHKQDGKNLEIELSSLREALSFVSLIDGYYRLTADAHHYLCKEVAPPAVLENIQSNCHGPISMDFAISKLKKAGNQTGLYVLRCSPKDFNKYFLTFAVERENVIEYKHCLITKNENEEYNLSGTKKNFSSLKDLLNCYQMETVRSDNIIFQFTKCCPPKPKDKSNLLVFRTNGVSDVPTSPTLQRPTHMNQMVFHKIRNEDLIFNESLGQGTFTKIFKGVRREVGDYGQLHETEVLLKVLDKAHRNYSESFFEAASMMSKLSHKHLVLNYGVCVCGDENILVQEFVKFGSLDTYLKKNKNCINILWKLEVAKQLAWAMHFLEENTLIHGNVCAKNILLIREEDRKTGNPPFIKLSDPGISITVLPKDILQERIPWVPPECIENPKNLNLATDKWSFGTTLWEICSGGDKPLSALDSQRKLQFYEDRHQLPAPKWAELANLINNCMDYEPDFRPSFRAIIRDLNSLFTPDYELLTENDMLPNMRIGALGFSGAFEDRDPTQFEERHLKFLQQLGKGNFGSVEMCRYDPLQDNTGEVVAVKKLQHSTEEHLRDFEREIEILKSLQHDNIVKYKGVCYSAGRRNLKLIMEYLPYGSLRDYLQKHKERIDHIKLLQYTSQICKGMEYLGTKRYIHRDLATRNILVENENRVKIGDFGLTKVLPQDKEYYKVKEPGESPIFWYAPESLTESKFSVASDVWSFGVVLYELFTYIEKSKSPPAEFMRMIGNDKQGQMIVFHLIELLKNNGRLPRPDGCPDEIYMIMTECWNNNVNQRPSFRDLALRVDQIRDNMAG

SMILES | Ki (JAK-2 enzyme) | Ki (JAK3)
Nc1nn2cccnc2c1-c1cc(N[C@H]2CCCc3ccccc32)ncn1 [Compound 76] | 10 to 100 nM | 100 to 500 nM
CCC[C@H](Nc1cc(-c2c(N)nn3cccnc23)nc(S(C)(=O)=O)n1)c1ccc(F)cc1F [Compound 112] | < 10 nM | 10 to 100 nM
C[C@H](Nc1cc(-c2cnn3cccnc23)nc(OCCOCCN2CCNCC2)n1)c1ccc(F)cc1F [Compound 203] | 10 to 100 nM | 100 to 500 nM
C=CCCCOc1nc(N[C@@H](C)c2ccc(F)cc2)cc(-c2c(N)nn3cccnc23)n1 [Compound 182] | 10 to 100 nM | 100 to 500 nM
C[C@H](Nc1cc(-c2c(N)nn3cccnc23)nc(C#N)n1)c1ccc(F)cc1F [Compound 140] | < 10 nM | < 10 nM
CC(C)[C@@H](Nc1cc(-c2cnn3cccnc23)ncn1)c1ccc(F)cc1F [Compound 120] | 10 to 100 nM | 100 to 500 nM
CC(C)=CCOc1nc(N[C@@H](C)c2ccc(F)cc2)cc(-c2c(N)nn3cccnc23)n1 [Compound 152] | 10 to 100 nM | 10 to 100 nM
CC(Oc1cc(-c2c(N)nn3cccnc23)ncn1)c1ccc(F)cc1 (stereo not drawn) [Compound 71] | < 10 nM | 10 to 100 nM
Cc1ccn2nc(N)c(-c3cc(N[C@@H](C)c4ccc(F)cc4)ncn3)c2n1 [Compound 95] | < 10 nM | 10 to 100 nM
COCCOc1nc(N[C@@H](C)c2ccc(F)cc2F)cc(-c2cnn3cccnc23)n1 [Compound 196] | < 10 nM | 10 to 100 nM
C[C@H](Nc1cc(-c2c(N)nn3cccnc23)nc(OCCC2CC2)n1)c1ccc(F)cc1 [Compound 157] | 10 to 100 nM | 100 to 500 nM
Nc1nn2cccnc2c1-c1cc(O[C@@H](c2ccccc2)C(F)(F)F)ncn1 [Compound 70] | 100 to 500 nM | 500 to 5000 nM
C[C@H](Nc1cc(-c2cnn3cccnc23)nc(OCCN2CCCCCC2)n1)c1ccc(F)cc1F [Compound 217] | < 10 nM | 10 to 100 nM
C[C@H](Nc1cc(-c2c(N)nn3cccnc23)nc(S(C)(=O)=O)n1)c1ccc(F)cc1 [Compound 100] | < 10 nM | < 10 nM
CCC#CCOc1nc(N[C@@H](C)c2ccc(F)cc2)cc(-c2c(N)nn3cccnc23)n1 [Compound 162] | 10 to 100 nM | 100 to 500 nM
C=CCCOc1nc(N[C@@H](C)c2ccc(F)cc2)cc(-c2c(N)nn3cccnc23)n1 [Compound 170] | < 10 nM | 10 to 100 nM
CC[C@H](Nc1cc(-c2c(N)nn3cccnc23)ncn1)c1ccc(Cl)cc1F [Compound 83] | < 10 nM | 100 to 500 nM
CC[C@H](Nc1cc(-c2c(N)nn3ccc(C)nc23)ncn1)c1ccc(F)c(F)c1 [Compound 94] | < 10 nM | 10 to 100 nM
C[C@H](Nc1cc(-c2cnn3cccnc23)nc(OCCNC(C)(C)C)n1)c1ccc(F)cc1F [Compound 206] | < 10 nM | 10 to 100 nM
C[C@H](Nc1cc(-c2c(N)nn3cccnc23)nc(OCCCN(C)C)n1)c1ccc(F)cc1 [Compound 154] | < 10 nM | 10 to 100 nM
C[C@H](Nc1cc(-c2cnn3cccnc23)nc(OCCN2CCOCC2)n1)c1ccc(F)cc1F [Compound 213] | < 10 nM | 10 to 100 nM
C[C@H](Nc1cc(-c2c(N)nn3ccc(C(F)(F)F)nc23)ncn1)c1ccc(F)cc1F [Compound 135] | 10 to 100 nM | 100 to 500 nM
Nc1nn2cccnc2c1-c1cc(N2Cc3ccccc3C2)ncn1 [Compound 27] | 10 to 100 nM | 100 to 500 nM
C[C@@H](Nc1cc(-c2cnn3cccnc23)ncn1)c1ccc(Cl)cc1 [Compound 146] | 10 to 100 nM | 500 to 5000 nM

SMILES | Ki (JAK-2 enzyme) | Ki (JAK3)
C[C@H](Nc1cc(-c2c(N)nn3cccnc23)nc(OC[C@@H]2CO2)n1)c1ccc(F)cc1 [Compound 163] | 10 to 100 nM | 500 to 5000 nM
Cc1ccc(CNc2cc(-c3c(N)nn4cccnc34)ncn2)o1 [Compound 26] | 10 to 100 nM | 100 to 500 nM
C[C@H](Nc1cc(-c2c(N)nn3cccnc23)ncn1)c1ccc(F)cc1Cl [Compound 80] | < 10 nM | 10 to 100 nM
C[C@H](Nc1cc(-c2c(N)nn3cccnc23)nc(N2CCOCC2)n1)c1ccc(F)cc1F [Compound 106] | < 10 nM | 10 to 100 nM
C[C@H](Nc1ccnc(-c2cnn3cccnc23)n1)c1ccc(Cl)cc1 [Compound 226] | 100 to 500 nM | 500 to 5000 nM
CC1CC1COc1nc(N[C@@H](C)c2ccc(F)cc2F)cc(-c2cnn3cccnc23)n1 (stereo partly drawn) [Compound 214] | < 10 nM | 100 to 500 nM
Nc1nn2cccnc2c1-c1cc(NCc2cc(C(F)(F)F)ccc2F)ncn1 [Compound 45] | 10 to 100 nM | 100 to 500 nM
C=CCOc1nc(N[C@@H](C)c2ccc(F)cc2)cc(-c2c(N)nn3cccnc23)n1 [Compound 169] | < 10 nM | 10 to 100 nM
CCC[C@H](Nc1cc(-c2cnn3cccnc23)ncn1)c1ccc(F)cc1 [Compound 116] | < 10 nM | 10 to 100 nM
CCC[C@@H](Nc1cc(-c2cnn3cccnc23)ncn1)c1ccc(F)cc1F [Compound 123] | 10 to 100 nM | 100 to 500 nM
C[C@H](Nc1cc(-c2c(N)nn3cccnc23)nc(OCC(F)(F)F)n1)c1ccc(F)cc1 [Compound 156] | < 10 nM | 100 to 500 nM
Nc1nn2cccnc2c1-c1cc(OCc2ccc(C(F)(F)F)cc2)ncn1 [Compound 72] | 100 to 500 nM | > 5000 nM
COc1cc2c(cc1OC)CN(c1cc(-c3c(N)nn4cccnc34)ncn1)CC2 [Compound 35] | 100 to 500 nM | 100 to 500 nM
C[C@H](Nc1cc(-c2cnn3cccnc23)ncn1)c1ccc(Cl)cc1 [Compound 144] | < 10 nM | 100 to 500 nM
COCC(=O)Nc1nc(N[C@@H](C)c2ccc(F)cc2F)cc(-c2cnn3cccnc23)n1 [Compound 187] | < 10 nM | 10 to 100 nM
C[C@H](Nc1cc(-c2cnn3cccnc23)nc(OC2CCN(C)CC2)n1)c1ccc(F)cc1F [Compound 200] | < 10 nM | 100 to 500 nM
C[C@H](Nc1cc(-c2c(N)nn3cccnc23)ncn1)c1ccc(Cl)cc1F [Compound 81] | < 10 nM | 10 to 100 nM
C[C@H](Nc1cc(-c2c(N)nn3cccnc23)nc(OCC2CCCO2)n1)c1ccc(F)cc1F (stereo partly drawn) [Compound 139] | < 10 nM | 10 to 100 nM
C[C@@H](c1ccccc1)N(C)c1cc(-c2c(N)nn3cccnc23)ncn1 [Compound 19] | 10 to 100 nM | 100 to 500 nM
CCN(CC)C(=O)COc1nc(N[C@@H](C)c2ccc(F)cc2F)cc(-c2c(N)nn3cccnc23)n1 [Compound 127] | 10 to 100 nM | 100 to 500 nM
Nc1nn2cccnc2c1-c1cc(NCc2ccccc2OC(F)(F)F)ncn1 [Compound 14] | < 10 nM | 10 to 100 nM
Nc1nn2cccnc2c1-c1cc(NCc2ccsc2Br)ncn1 [Compound 36] | < 10 nM | 10 to 100 nM
Nc1nn2cccnc2c1-c1cc(NCc2ccc(C(F)(F)F)cc2F)ncn1 [Compound 46] | < 10 nM | 10 to 100 nM
Nc1nn2cccnc2c1-c1cc(N2CCc3ccccc3C2)ncn1 [Compound 42] | 10 to 100 nM | 100 to 500 nM
